# PMC5740082, “Identification of a CARM1 Inhibitor with Potent In Vitro and In Vivo Activity in Preclinical Models of Multiple Myeloma” (Scientific Reports, 2017)
# Values joined by “and” are separate entries in the source; they are usually repeats but may differ in a detail not shown here. Equal values may be shown once. Read-outs that look alike come from different tables or passages of the source.
# Legend:
# [1] = Plasma protein binding (equilibrium dialysis), mouse plasma; type: in vitro ADME, CD-1 mouse; settings: male, CD-1, pH 7.4
# Procedure: Hepatocyte stability, plasma protein binding and cytochrome P450 assays were performed using standard procedures. Details can be found in Supplementary Methods. […]
# reaction. Plates were incubated at 37°C and 50 µL aliquots were removed from the incubation mixture at 0, 10, 20, 40, 60 and 90 min and added to 2 volumes of methanol containing metoprolol (internal standard) to stop the reaction. Negative control incubations with inactivated cell l ysat e were incubat ed for 90 min. Positive controls were verapamil and umbelliferone. The termination plates were centrifuged at 2,500 rpm for 20 min at 4°C to precipitate the protein prior to LC -MS/MS analysis. In vitro h alf -life (t½) value was det ermined b y plotting the natural logarithm of the anal yte/ IS peak area ratios as a function of time, with the slope of the linear regression (k; - gradient) converted to in vitro t ½ v alue wher e t ½=0.693/k. […]
# Plasma protein binding was assessed b y equilibrium dial ysis, utilizing the HT-dial ysis cell format with a cellulose semi- permeable membran e (molecular wei ght cut-off of 5000 Da).
# (pH 7.4) and 100% mixed gender pooled human, pooled male CD -1 mouse or Sprague-Dawle y rat plasma. […] Samples were quantified using standard curves prepared in the equivalent matrix. The fraction unbound in plas ma (fu) was calculated us ing the followin g equ ation: […]
# [2] = test system: 40 protein kinases, lipid kinases and kinase mutants; assay: KinaseProfiler screen (Millipore); type: biochemical; settings: 10 μM
# RPMI-8226 xenograft = assay: RPMI-8226 multiple myeloma xenograft study; type: in vivo, CB-17 SCID mice
# Procedure: For the in vivo efficacy studies, there were 8 mice per dose group and each mouse was inoculated subcutaneously at the right flank. All cells were suspended in a 0.2 mL mixture of base media and Matrigel at 1:1 for tumor development. RPMI-8226 cells were inoculated at 5 × 10^6 cells/mouse and treatment began when the mean tumor sizes reached 120 mm^3 (28 days post-inoculation). CB-17 SCID Mice were assigned into groups using a randomized block design. […] Body weights were measured twice a week for the duration of the study. Tumor size was measured twice weekly in two dimensions using a caliper, and the volume was expressed in cubic millimeters. Animals were euthanized 3 hours post-final dose, with blood and tissues collected for analysis.
# [3] = Pharmacokinetic study in rat
# Procedure: (§1) An additional group of rats, cannulated in both the jugular and portal veins were dosed by oral gavage (10 mg/kg, in 0.5% methylcellulose in water). Approximately 110 μL of blood was taken from the animals by retro-orbital bleeding (mouse), tail vein (rat i.v.) or both jugular and portal vein sampling (rat p.o.) at pre-specified time intervals. The 2 h samples were split for parallel determination of blood and plasma concentration (ex vivo ratio). Blood samples were collected into K2-EDTA tubes and centrifuged to obtain plasma.
# [4] = Pharmacokinetic study in mouse
# Procedure: as §1
# [5] = test system: PABP1 and SmB methylation in NCI-H929 cells; assay: Western blot of cellular methyl marks, NCI-H929; settings: Homo sapiens, NCI-H929, 96 h
# Procedure: Methylation changes were measured at the well-characterized CARM1 substrates PABP1 and SmB[1],[10]. Changes in overall levels of asymmetric dimethyl arginine (aDMA) were assessed with an antibody that detects a generic aDMA motif. Levels of methylated analytes were quantified by densitometry and ratios of methylated to total protein were calculated to determine the cell biochemical IC50 values.
# Cultured cells in linear/log phase growth were split to a seeding density of 2e5 cells/mL in 2–20mLs of media, depending on the yield required at the end of the growth period. Compound was diluted in DMSO and added to each culture vessel with a final DMSO concentration of 0.2%. Cells were allowed to grow for 96 hours. At the conclusion of each treatment period, cells were harvested by centrifugation (5 minutes, 1200 rpm), and cell pellets were rinsed once with PBS before being frozen on dry ice pending further processing.
# Quantification of Western blots was performed using infra-red emitting secondary antibodies and detection with an ODYSSEY infrared imaging system.
# [6] = Sprague-Dawley, rat, plasma, po, 10 mg/kg
# [7] = male, Sprague-Dawley, rat, plasma, iv, 2 mg/kg
# [8] = male, CD-1, mouse, plasma, iv, 2 mg/kg
# [9] = male, CD-1, mouse, plasma, po, 10 mg/kg
smiles,measurement,setting,value
CNC[C@@H](O)COc1ccc(Cl)c(-c2nc(-c3c(C)noc3C)c(C)c(N3CC4(CCN(C(=O)OC)CC4)C3)n2)c1 [EZM2302],"fraction unbound at 16 h, 5 µM",[1],0.46
same,inhibition of kinases,[2],≤ 30%
same,Tumor growth inhibition (TGI),"RPMI-8226 xenograft; 37.5 mg/kg BID oral, 21 days",45%
same,increase in unmethylated SmB (SmBme0) in tumor,"RPMI-8226 xenograft; 37.5 mg/kg BID oral, day 21",8 fold
same,maximal inhibition of aDMA levels in tumor,"RPMI-8226 xenograft; 75 mg/kg BID oral, day 21",65%
same,Methylated PABP1 in tumor,"RPMI-8226 xenograft; 75 mg/kg and higher dose groups, day 21",undetectable in most animals
same,increase in unmethylated SmB (SmBme0) in tumor,"RPMI-8226 xenograft; 150 mg/kg BID oral, day 21",14 fold
same,tolerability,"RPMI-8226 xenograft; 150 mg/kg and below BID oral, 21 days",well tolerated
same,Tumor growth inhibition (TGI),"RPMI-8226 xenograft; 300 mg/kg BID oral, 21 days",63%
same,body weight,"RPMI-8226 xenograft; 300 mg/kg BID oral, 21 days",some body weight loss
same,weight loss leading to dosing holidays,"RPMI-8226 xenograft; 6 of 8 animals in the 300 mg/kg group, holidays of 2 to 8 days",greater than 8%
same,day of maximal changes in methylation in tumor tissue,"RPMI-8226 xenograft; 150 and 300 mg/kg BID, sampled after 2, 4 and 8 days",4 days
same,CL (plasma clearance),"[3]; Sprague-Dawley rat, IV Bolus 2 mg/kg, 2 mg/kg",90.5 ± 10.5 mL/min/kg
same,Fa*Fg (fraction of the dose absorbed from the gastro-intestinal tract),"[3]; Sprague-Dawley rat, PO 10 mg/kg, JVC-PVC rat PK experiment, 10 mg/kg",81% and 80.7%
same,AUC(0-inf),[3]; [6],487 ± 102 ng·h/mL
same,AUC(0-t),[3]; [6],453 ± 89.3 ng·h/mL
same,Cmax,[3]; [6],113 ± 22.4 ng/mL
same,Tmax,[3]; [6],2 h
same,bioavailability,[3]; [6],26.2 ± 5.45%
same,half-life,[3]; [6],6.64 ± 1.41 h
same,AUC(0-inf),[3]; [7],372 ± 43.3 ng·h/mL
same,AUC(0-t),[3]; [7],352 ± 30.6 ng·h/mL
same,Vd,[3]; [7],35.6 ± 1.3 L/kg
same,half-life,[3]; [7],6.21 ± 1.65 h
same,clearance,"[3]; male, Sprague-Dawley, rat, plasma, iv, 2 mg/kg, CL (plasma clearance), Sprague-Dawley rat, IV Bolus 2 mg/kg",91 mL/min/kg
same,CL (plasma clearance),"[4]; CD-1 mouse, IV Bolus 2 mg/kg, 2 mg/kg",43.2 mL/min/kg
same,AUC(0-inf),[4]; [8],772 ng·h/mL
same,AUC(0-t),[4]; [8],767 ng·h/mL
same,Vd,[4]; [8],6.53 L/kg
same,half-life,[4]; [8],4.22 h
same,clearance,"[4]; male, CD-1, mouse, plasma, iv, 2 mg/kg, CL (plasma clearance), IV Bolus 2 mg/kg",43 mL/min/kg
same,AUC(0-inf),[4]; [9],577 ng·h/mL
same,AUC(0-t),[4]; [9],568 ng·h/mL
same,Cmax,[4]; [9],177 ng/mL
same,Tmax,[4]; [9],2 h
same,bioavailability,[4]; [9],15%
same,half-life,[4]; [9],4.55 h
same,IC50,"[5]; read-out: IC50, PABP1me2a",9 nM
same,IC50,"[5]; read-out: IC50, SmBme0",31 nM
